For experiment [1], the system named is Staphylococcus aureus. As to the kind of experiment: Antibacterial activity against methicillin-resistant Staphylococcus aureus CGMCC 1.12409 assessed as reduction in bacterial growth. It is filed as functional.
In experiment [2] the test system is Staphylococcus aureus. Put plainly: Bactericidal activity against methicillin-resistant Staphylococcus aureus ATCC 43300 assessed as reduction in bacterial growth. Format: functional.
Experiment [3] has as its system Staphylococcus aureus. Put plainly: Bactericidal activity against methicillin-resistant Staphylococcus aureus CGMCC 1.12409 assessed as reduction in bacterial growth. It is filed as functional.
The test system of experiment [4] is Staphylococcus aureus. Put plainly: Antibacterial activity against methicillin-resistant Staphylococcus aureus ATCC 43300 assessed as reduction in bacterial growth. Format: functional.
For experiment [5], the system named is Staphylococcus aureus. As to the kind of experiment: Antibacterial activity against Staphylococcus aureus CGMCC1.8721 assessed as reduction in bacterial growth. Format: functional.
Experiment [6] relates to Staphylococcus aureus. Put plainly: Bactericidal activity against methicillin-resistant Staphylococcus aureus ATCC 33591 assessed as reduction in bacterial growth. Format: functional.
Experiment [7] relates to Staphylococcus aureus. As to the kind of experiment: Antibacterial activity against methicillin-resistant Staphylococcus aureus ATCC 33591 assessed as reduction in bacterial growth. Format: functional.
The test system of experiment [8] is Staphylococcus aureus. As to the kind of experiment: Bactericidal activity against Staphylococcus aureus CGMCC1.8721 assessed as reduction in bacterial growth. Format: functional.
Experiment [9] relates to Staphylococcus aureus. Put plainly: Antibacterial activity against Staphylococcus aureus CGMCC1.8721 assessed as reduction in bacterial growth in presence of phosphatidylglycerol. Format: functional.
For experiment [10], the system named is Staphylococcus aureus. As to the kind of experiment: Antibacterial activity against Methicillin-resistant Staphylococcus aureus CGMCC1.8721 infected in mouse skin infection model assessed as reduction in bacterial load at 5 mg/kg, sc. Format: functional. Details: scale not given: the % may be the effect or the level left.
Experiment [11] has as its system Staphylococcus aureus. As to the kind of experiment: Antibacterial activity against Methicillin-resistant Staphylococcus aureus CGMCC1.8721 infected in mouse skin infection model assessed as reduction in bacterial clones at 5 mg/kg, sc. Format: functional, organism-based.

Values after ≈ are worked out from the molar mass of the structure shown. Active and inactive are the calls of the source.

The values that follow come from ChEMBL document CHEMBL6078711, “Design, synthesis, and biological evaluation of steroidal indole derivatives as membrane-targeting antibacterial candidates” (Eur J Med Chem, 2025).

By MIC is commonly meant the lowest concentration found to suppress growth. Broadly, the MBC is the smallest concentration meeting the test's criterion for killing.

Regarding `CCNCc1ccc2[nH]cc([C@H]3CC[C@H]4[C@@H]5CC[C@H]6C[C@@H](O)CC[C@]6(C)[C@H]5CC[C@]34C)c2c1`, the MIC was found to be 8 µg/mL (≈ 17.8 µM) in experiment [1], 4 µg/mL (≈ 8.91 µM) in [4], 4 µg/mL (≈ 8.91 µM) in [5] and 8 µg/mL (≈ 17.8 µM) in experiment [7]. Besides, the minimum bactericidal concentration (MBC) was determined as 8 µg/mL (≈ 17.8 µM) in experiment [2], 16 µg/mL (≈ 35.7 µM) in [3], 16 µg/mL (≈ 35.7 µM) in experiment [6] and 8 µg/mL (≈ 17.8 µM) in experiment [8].

As for `C[C@H](Cc1c[nH]c2ccc(CN3CCC(N4CCCC4)CC3)cc12)[C@H]1CC[C@H]2[C@@H]3CC[C@@H]4C[C@H](O)CC[C@]4(C)[C@H]3CC[C@]12C`, the MIC in [4] and in [5] was 16 µg/mL (≈ 26.7 µM) in each case.

`C[C@H](Cc1c[nH]c2ccc(CN3CCC(O)C3)cc12)[C@H]1CC[C@H]2[C@@H]3CC[C@@H]4C[C@H](O)CC[C@]4(C)[C@H]3CC[C@]12C` (some centres undefined): the values for the MIC in experiment [4] and in [5] were 16 µg/mL (≈ 30 µM) and 8 µg/mL (≈ 15 µM), respectively.

With `CCNCc1ccc2[nH]cc([C@H]3CC[C@H]4[C@@H]5CCc6cc(O)ccc6[C@H]5CC[C@]34C)c2c1`, the MIC was found to be 4 µg/mL (≈ 9.33 µM) in experiment [1], 1 µg/mL (≈ 2.33 µM) in experiment [4], 1 µg/mL (≈ 2.33 µM) in [5] and 4 µg/mL (≈ 9.33 µM) in [7]. The MBC turned out to be 2 µg/mL (≈ 4.67 µM) in experiment [2], 8 µg/mL (≈ 18.7 µM) in experiment [3], 8 µg/mL (≈ 18.7 µM) in experiment [6] and 2 µg/mL (≈ 4.67 µM) in experiment [8].

With `CN[C@H](CC(C)C)C(=O)N[C@H]1C(=O)N[C@@H](CC(N)=O)C(=O)N[C@H]2C(=O)N[C@H]3C(=O)N[C@H](C(=O)N[C@H](C(=O)O)c4cc(O)cc(O)c4-c4cc3ccc4O)[C@H](O)c3ccc(c(Cl)c3)Oc3cc2cc(c3O[C@@H]2O[C@H](CO)[C@@H](O)[C@H](O)[C@H]2O[C@H]2C[C@](C)(N)[C@H](O)[C@H](C)O2)Oc2ccc(cc2Cl)[C@H]1O` [VANCOMYCIN], in experiment [9], the outcome was inactive. Besides, the Activity in [10] turned out to be 87%. For the same molecule, the outcome in experiment [11] was Active.

As to `C[C@H](Cc1c[nH]c2ccc(CNCCO)cc12)[C@H]1CC[C@H]2[C@@H]3CC[C@@H]4C[C@H](O)CC[C@]4(C)[C@H]3CC[C@]12C`, the MIC in experiment [5] is 16 µg/mL (≈ 31.6 µM).

Consider `O=C(N[C@H](CO)[C@H](O)c1ccc([N+](=O)[O-])cc1)C(Cl)Cl`, for which, in experiment [9], the result was inactive.

Consider `COc1ccc2[nH]cc(C[C@@H](C)[C@H]3CC[C@H]4[C@@H]5[C@H](O)C[C@@H]6C[C@H](O)CC[C@]6(C)[C@H]5CC[C@]34C)c2c1`, for which the MIC in experiment [1] stood at 32 µg/mL (≈ 66.7 µM); in experiment [4], 32 µg/mL (≈ 66.7 µM); in experiment [5], 16 µg/mL (≈ 33.4 µM); in [7], 32 µg/mL (≈ 66.7 µM).

In the case of `C[C@H](Cc1c[nH]c2ccc(CN3CCN(C)CC3)cc12)[C@H]1CC[C@H]2[C@@H]3CC[C@@H]4C[C@H](O)CC[C@]4(C)[C@H]3CC[C@]12C`, the MIC in experiment [5] was found to be 16 µg/mL (≈ 29.3 µM).

For `COc1ccc2[nH]cc([C@H]3CC[C@H]4[C@@H]5CCc6cc(O)ccc6[C@H]5CC[C@]34C)c2c1`, the MIC in [4] worked out at 32 µg/mL (≈ 79.7 µM); in experiment [5], 16 µg/mL (≈ 39.8 µM).

In the case of `COc1ccc2[nH]cc(C[C@@H](C)[C@H]3CC[C@H]4[C@@H]5CC[C@@H]6C[C@H](O)CC[C@]6(C)[C@H]5CC[C@]34C)c2c1`, the MIC in experiment [1] is 32 µg/mL (≈ 69 µM); in experiment [4], 32 µg/mL (≈ 69 µM); in [5], 16 µg/mL (≈ 34.5 µM); in [7] it was 32 µg/mL (≈ 69 µM).

`CCCCCCCCCC(=O)N[C@@H](Cc1c[nH]c2ccccc12)C(=O)N[C@@H](CC(N)=O)C(=O)N[C@@H](CC(=O)O)C(=O)N[C@@H]1C(=O)NCC(=O)N[C@@H](CCCN)C(=O)N[C@@H](CC(=O)O)C(=O)N[C@H](C)C(=O)N[C@@H](CC(=O)O)C(=O)NCC(=O)N[C@H](CO)C(=O)N[C@@H]([C@@H](C)CC(=O)O)C(=O)N[C@@H](CC(=O)c2ccccc2N)C(=O)O[C@@H]1C`: the outcome in [9] was Active.

Consider `CC1CN(Cc2ccc3[nH]cc(C[C@@H](C)[C@H]4CC[C@H]5[C@@H]6CC[C@@H]7C[C@H](O)CC[C@]7(C)[C@H]6CC[C@]45C)c3c2)CC(C)N1` (some centres undefined), for which, in experiment [5], the MIC worked out at 32 µg/mL (≈ 57.2 µM).

Turning to `COc1ccc2[nH]cc(C[C@@H](C)[C@H]3CC[C@H]4[C@@H]5[C@H](O)C[C@@H]6C[C@H](O)CC[C@]6(C)[C@H]5C[C@H](O)[C@]34C)c2c1`, the MIC was determined as 32 µg/mL (≈ 64.6 µM) in experiment [1], 32 µg/mL (≈ 64.6 µM) in experiment [4], 16 µg/mL (≈ 32.3 µM) in experiment [5] and 32 µg/mL (≈ 64.6 µM) in [7].

`C[C@H](Cc1c[nH]c2ccc(CN3CCNCC3)cc12)[C@H]1CC[C@H]2[C@@H]3CC[C@@H]4C[C@H](O)CC[C@]4(C)[C@H]3CC[C@]12C`: the MIC in experiment [1] came out at 16 µg/mL (≈ 30.1 µM); in [4], 16 µg/mL (≈ 30.1 µM); in experiment [5], 8 µg/mL (≈ 15 µM); in experiment [7], 16 µg/mL (≈ 30.1 µM).

For `C[C@H](Cc1c[nH]c2ccc(CNc3ccc(C(F)(F)F)cc3)cc12)[C@H]1CC[C@H]2[C@@H]3CC[C@@H]4C[C@H](O)CC[C@]4(C)[C@H]3CC[C@]12C`, the MIC in experiment [1] is above 32 µg/mL; in experiment [4], 32 µg/mL (≈ 52.7 µM); in [5] it was 16 µg/mL (≈ 26.4 µM).

For `C[C@H](Cc1c[nH]c2ccc(CNCCCl)cc12)[C@H]1CC[C@H]2[C@@H]3CC[C@@H]4C[C@H](O)CC[C@]4(C)[C@H]3CC[C@]12C`, in [5], the MIC came to 32 µg/mL (≈ 60.9 µM).

Consider `CCn1cc(C(=O)O)c(=O)c2cc(F)c(N3CCNCC3)cc21`, for which, in experiment [9], the result was inactive.

`CCCNCc1ccc2[nH]cc(C[C@@H](C)[C@H]3CC[C@H]4[C@@H]5CC[C@@H]6C[C@H](O)CC[C@]6(C)[C@H]5CC[C@]34C)c2c1`: the MIC in [4] and in experiment [5] was 32 µg/mL (≈ 63.4 µM) throughout.

Consider `C[C@H](Cc1c[nH]c2ccc(CNCCN3CCN(C)CC3)cc12)[C@H]1CC[C@H]2[C@@H]3CC[C@@H]4C[C@H](O)CC[C@]4(C)[C@H]3CC[C@]12C`, for which the MIC turned out to be 4 µg/mL (≈ 6.79 µM) in experiment [1], 2 µg/mL (≈ 3.4 µM) in experiment [4], 2 µg/mL (≈ 3.4 µM) in experiment [5] and 4 µg/mL (≈ 6.79 µM) in experiment [7].

`CNCc1ccc2[nH]cc(C[C@@H](C)[C@H]3CC[C@H]4[C@@H]5CC[C@@H]6C[C@H](O)CC[C@]6(C)[C@H]5CC[C@]34C)c2c1`: the MIC in experiment [1], in experiment [4], in experiment [5] and in [7] was 2 µg/mL (≈ 4.2 µM) in each case. The MBC was found to be 4 µg/mL (≈ 8.39 µM) in experiment [2], 4 µg/mL (≈ 8.39 µM) in [3], 4 µg/mL (≈ 8.39 µM) in [6] and 2 µg/mL (≈ 4.2 µM) in [8].

In the case of `COc1ccc(NCc2ccc3[nH]cc(C[C@@H](C)[C@H]4CC[C@H]5[C@@H]6CC[C@@H]7C[C@H](O)CC[C@]7(C)[C@H]6CC[C@]45C)c3c2)cc1`, the MIC in experiment [4] and in experiment [5] was 16 µg/mL (≈ 28.1 µM) in each case.

On to `COc1ccc2[nH]cc([C@H]3CC[C@H]4[C@@H]5CC[C@H]6C[C@@H](O)CC[C@]6(C)[C@H]5CC[C@]34C)c2c1`, for which the MIC in experiment [4] and in experiment [5] was 16 µg/mL (≈ 37.9 µM) each time.

As for `C[C@H](Cc1c[nH]c2ccccc12)[C@H]1CC[C@H]2[C@@H]3CC[C@@H]4C[C@H](O)CC[C@]4(C)[C@H]3CC[C@]12C`, the MIC in [5] was above 32 µg/mL.

As for `C[C@H](Cc1c[nH]c2ccc(CN3CCOCC3)cc12)[C@H]1CC[C@H]2[C@@H]3CC[C@@H]4C[C@H](O)CC[C@]4(C)[C@H]3CC[C@]12C`, the values for the MIC in experiment [4] and in [5] were 32 µg/mL (≈ 60.1 µM) and 16 µg/mL (≈ 30 µM), respectively.

Take `C[C@H](Cc1c[nH]c2ccc(CN3CCSCC3)cc12)[C@H]1CC[C@H]2[C@@H]3CC[C@@H]4C[C@H](O)CC[C@]4(C)[C@H]3CC[C@]12C`: the MIC stood at 16 µg/mL (≈ 29.2 µM) in experiment [1], 16 µg/mL (≈ 29.2 µM) in [4], 8 µg/mL (≈ 14.6 µM) in experiment [5] and 16 µg/mL (≈ 29.2 µM) in experiment [7].

For `C[C@H](Cc1c[nH]c2ccc(CO)cc12)[C@H]1CC[C@H]2[C@@H]3CC[C@@H]4C[C@H](O)CC[C@]4(C)[C@H]3CC[C@]12C`, the MIC worked out at 32 µg/mL (≈ 69 µM) in [1], 32 µg/mL (≈ 69 µM) in [4] and 16 µg/mL (≈ 34.5 µM) in experiment [5].

On to `CC1(C)S[C@@H]2[C@H](NC(=O)[C@H](N)c3ccccc3)C(=O)N2[C@H]1C(=O)O`, for which the outcome in experiment [9] was inactive.

On to `C[C@H](Cc1c[nH]c2ccc(CN3CC(O)C3)cc12)[C@H]1CC[C@H]2[C@@H]3CC[C@@H]4C[C@H](O)CC[C@]4(C)[C@H]3CC[C@]12C`, for which the MIC amounted to 16 µg/mL (≈ 30.8 µM) in experiment [1], 8 µg/mL (≈ 15.4 µM) in [4], 8 µg/mL (≈ 15.4 µM) in [5] and 16 µg/mL (≈ 30.8 µM) in experiment [7].
